Experimental data: patent US9624217B2, “Dihydropyrrolopyridine inhibitors of ROR-gamma” (Vitae Pharmaceuticals, Inc., priority 2014, dated 2017)

How the values were obtained:
full-length RORγt = full-length RORγt (Homo sapiens (Human), UniProt P51449); test: RORγt 5×RORE Assay in Jurkat Cells (Assay 2); type: cell-based; conditions: secreted Nanoluc luciferase 5×RORE reporter, 16-18 hrs, read-out: RORγt5X IC50 Range
Protocol: [formula] RORγt 5×RORE Assay in Jurkat Cells (Assay 2)
Compounds of the present invention were tested for RORγ inverse agonist activity in a cell-based, transcriptional activity assay. […] (Promega, Cat. #N1021) using KpnI and HindIII restriction sites. […] Luciferase activity in the conditioned supernatants was determined with NanoGlo® assay reagents (Promega, Cat. #N1130).

[1] = biological target: recombinant RORγ Ligand Binding Domain (LBD) (Homo sapiens (Human), UniProt P51449); test: Radio-Ligand RORγ Binding Assay (Assay 1); conditions: SPA competition with 25-hydroxy [26,27-3H]-cholesterol, cell-free; read-out: RORγ Binding Ki Range
Chain of recombinant RORγ Ligand Binding Domain (LBD) (P51449 269-508): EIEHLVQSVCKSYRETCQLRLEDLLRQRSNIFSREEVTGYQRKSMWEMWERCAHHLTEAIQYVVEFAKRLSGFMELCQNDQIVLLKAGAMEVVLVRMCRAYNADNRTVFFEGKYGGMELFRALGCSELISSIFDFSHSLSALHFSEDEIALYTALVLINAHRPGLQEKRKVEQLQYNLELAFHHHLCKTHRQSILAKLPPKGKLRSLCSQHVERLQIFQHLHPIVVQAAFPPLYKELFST
Protocol: Radio-Ligand RORγ Binding Assay (Assay 1)
Compounds of the present invention were tested for ability to bind to RORγ in a cell-free competition assay with commercially available radio-ligand (RL), 25-hydroxy [26,27-^3H]-cholesterol (PerkinElmer, Cat. #NET674250UC), for a ligand binding site on a recombinant RORγ Ligand Binding Domain (LBD) protein expressed as a 6×His-Glutathione-S-Transferase (GST) fusion. […] The plate was shaken at 700 rpm for 20 min and incubated for 10 min at rt, after which 40 μL of poly-Lys YSi SPA beads (PerkinElmer, Cat. #RPNQ0010) were added to achieve 50 μg of the beads per well. The plate was incubated on an orbital shaker for 20 min and then for 10 min without agitation at rt. SPA signal for tritium beta radiation was registered on PerkinElmer Microbeta plate reader. […] The percent inhibition vs. concentration data were fit into a four-parameter model, and IC50 values were calculated from the fit as the concentrations corresponding to the inflection points on the dose-response curves.

Chain of full-length RORγt (P51449 other isoform, or with tags, fused parts or gaps): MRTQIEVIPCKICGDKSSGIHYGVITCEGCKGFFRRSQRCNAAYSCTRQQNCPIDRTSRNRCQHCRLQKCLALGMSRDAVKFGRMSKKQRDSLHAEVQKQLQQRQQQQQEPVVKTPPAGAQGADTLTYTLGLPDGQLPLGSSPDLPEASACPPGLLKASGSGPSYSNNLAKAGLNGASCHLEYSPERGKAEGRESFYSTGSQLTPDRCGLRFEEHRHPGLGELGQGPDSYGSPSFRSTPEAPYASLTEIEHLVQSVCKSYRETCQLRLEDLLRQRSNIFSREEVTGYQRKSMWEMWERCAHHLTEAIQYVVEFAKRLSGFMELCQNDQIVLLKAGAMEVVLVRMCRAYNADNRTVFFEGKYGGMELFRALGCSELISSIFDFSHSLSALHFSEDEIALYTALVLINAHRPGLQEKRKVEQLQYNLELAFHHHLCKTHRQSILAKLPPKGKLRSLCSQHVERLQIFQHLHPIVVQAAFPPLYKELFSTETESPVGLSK

CC(C)[C@H]1c2ncc(C(=O)NCC3CCN(S(C)(=O)=O)CC3)cc2CN1Cc1ccc(C(F)(F)F)cc1 [Compound 63]
IC50 (full-length RORγt): 100 to 1000 nM
Ki [1]: < 100 nM

CC(C)[C@H]1c2ncc(C(=O)NCc3ccc(C#N)cc3)cc2CN1Cc1ccc(C(F)(F)F)cc1 [Compound 64]
IC50 (full-length RORγt): 100 to 1000 nM
Ki [1]: < 100 nM

CNS(=O)(=O)c1ccc(CNC(=O)c2cnc3c(c2)CN(Cc2ccc(C(F)(F)F)cc2)[C@H]3C(C)C)cc1 [Compound 67]
IC50 (full-length RORγt): < 100 nM
Ki [1]: < 100 nM

CCS(=O)(=O)N1CCC(CNC(=O)c2cnc3c(c2)CN(Cc2ccc(C(F)(F)F)cc2)[C@H]3C(C)C)CC1 [Compound 109]
IC50 (full-length RORγt): > 1000 nM
Ki [1]: < 100 nM

CC(C)[C@H]1c2ncc(C(=O)NC[C@H]3CC[C@H](CC(=O)O)CC3)cc2CN1Cc1ccc(C(F)(F)F)cc1 [Compound 139]
IC50 (full-length RORγt): 100 to 1000 nM
Ki [1]: < 100 nM

CCS(=O)(=O)c1cnc(CNC(=O)c2cnc3c(c2)CN(Cc2ccc(C(F)(F)F)cc2)[C@H]3C(C)C)c(C)c1 [Compound 142]
IC50 (full-length RORγt): < 100 nM
Ki [1]: < 100 nM

CCS(=O)(=O)c1cnc(CNC(=O)c2cnc3c(c2)CN(Cc2ccc(C(F)(F)F)cc2)[C@H]3C(C)C)c(F)c1 [Compound 144]
IC50 (full-length RORγt): < 100 nM
Ki [1]: < 100 nM

CC(C)[C@H]1c2ncc(C(=O)N[C@@H](CO)c3ccc(C#N)cc3)cc2CN1Cc1ccc(C(F)(F)F)cc1 [Compound 149]
IC50 (full-length RORγt): 100 to 1000 nM
Ki [1]: < 100 nM

CC(C)[C@H]1c2ncc(C(=O)NCc3ccc(C#N)cn3)cc2CN1Cc1ccc(C(F)(F)F)cc1 [Compound 155]
IC50 (full-length RORγt): > 1000 nM
Ki [1]: 100 to 1000 nM
